Data reported in patent US20010041743A1, “Use of cyclopentenone derivatives for bone and periodontal regeneration” (priority 2000, published 2001).
“Also recorded” adds a separate entry of the source.

Tests used:
[1] = tested on: transcortical defects in rat femurs; assay: Titanium enclosure model of bone regeneration (histomorphometry of cortical defect); type: in vivo; conditions: for percentage of new bone formation in cortical defect area (bone growth): rat femur, control value 40%
Protocol: (§1) In one study, bone regeneration and gene expression was assayed using a titanium enclosure model, as described in Example 1 (FIG. 1). Briefly, transcortical defects were created surgically in rat femurs. A collagen sponge, loaded with a varying concentration of Δ^12PGJ2 was applied to each defect. The collagen sponge was secured by placement of the titanium enclosure, which served as a rigid and fixed geometry cell exclusion barrier. Animals were sacrificed at 10 days and bone tissue sections were prepared for immunohistology to quantify growth factor expression. Tissue sections from treated animals were also analyzed morphometrically to assess de novo bone formation of the defect areas.
Titanium enclosures were prepared by trimming and carving 0.1 mm thickness titanium plate to half cylindrical shape which had 8×1.5×2 mm in length, height, and width respectively. Both ends of the enclosures were sealed with surgical grade, self curing acrylic resin to form a closed half cylinder which is open only in the sagittal direction. The enclosures were then washed in an ultrasonic cleaning machine and autoclaved to sterilize and to create a titanium oxide surface prior to use.
Twenty-eight male Wistar rats, aged 8 weeks and weighing 350-400 g were randomly separated into 4 groups that received varying doses of Δ^12PGJ2. Two rats were housed in each cage with free access to normal laboratory diet and water ad libitum. After 7 days of acclimatization, the animals were initially anesthetized intramuscularly with Sodium pentobarbital (Nembutal sodium solution, Abbott Laboratories, Chicago, Ill.) at a dosage of 75 mg/kg of body weight. The area of intended surgery was shaved and disinfected using 90% ethyl alcohol. After pupillary reflex was inhibited, a 3-cm incision was made through skin and muscle parallel to the long axis over the dorsal aspect of both left and right femoral bone. The periosteum was incised and removed from the surface of the bone, creating an exposed area of sufficient size to place the open face of the cylindrical enclosure directly on the bone surface. Subsequently, a 5×1.5 mm transcortical defect was made through the cortical bone into the bone marrow at the midshaft region using round and cylindrical steel burs and a low speed micromotor machine. A sufficiently sterile 0.9% saline solution was used as a coolant to avoid heat-induced necrosis of surrounding bone. The femoral bone on one side of the animal was randomly chosen for treatment with Δ^12PGJ2, and the contralateral side was used as a control. FIG. 1 depicts a schematic diagram of the titanium enclosure model.
(§2) Δ^12PGJ2 (Cayman Chemical, Ann Arbor, Mich.) was diluted in 0.9% NaCl, pH 7.2, to the final concentration of 1×10^−3, 1×10^−5, 1×10^−7, and 1×10^−9 M. An absorbable collagen sponge (Colla-Tec Inc. Plainsboro, N.J.) 5×1.5 mm dimensions was used as a carrier. 10 μl of each Δ^12PGJ2 solution were loaded into the collagen carrier and then the carrier was placed inside the half cylindrical titanium enclosure. This provided a dosage of 3.0 μg, 30 ng, 0.3 ng, and 3 pg Δ^12PGJ2 in each of five standardized defects. The remaining volume inside the enclosure was filled with blood collected from the defect. The enclosure was inverted, placed over the defect, and stabilized by circumosseous wiring around the femoral bone using #010 orthodontic wire. […] The animals were monitored every day after surgery for indication of post-operative reactions. […]

[2] = tested on: PDGF-B; assay: Immunohistochemistry of PDGF-B expression in the titanium enclosure model; type: in vivo, rat; conditions: for PDGF-B expression in the area of the defect: 10 days
Protocol: as §1, §2
The area and average intensity of positive immunostaining were measured using a microscope connected to a computerized video digital system (JAVA video analysis software, Jandel Scientific, Corte Madera, Calif.) at a magnification of 100×. Three to five sections were analyzed for each femur and the data from all sections were pooled to reflect a mean value for each bone defect. […]

[3] = tested on: BMP-6; assay: Immunohistochemistry of BMP-6 expression in the titanium enclosure model; type: in vivo, rat; conditions: no concentration stated
Protocol: as §1
(§3) Δ^12PGJ2 (Cayman Chemical, Ann Arbor, Mich.) was diluted in 0.9% NaCl, pH 7.2, to the final concentration of 1×10^−3, 1×10^−5, 1×10^−7, and 1×10^−9 M. An absorbable collagen sponge (Colla-Tec Inc. Plainsboro, N.J.) 5×1.5 mm dimensions was used as a carrier. […] The animals were monitored every day after surgery for indication of post-operative reactions. […]
(§4) The area and average intensity of positive immunostaining were measured using a microscope connected to a computerized video digital system (JAVA video analysis software, Jandel Scientific, Corte Madera, Calif.) at a magnification of 100×. […]

[4] = tested on: PDGF-A; assay: Immunohistochemistry of PDGF-A expression in the titanium enclosure model; type: in vivo, rat; conditions: no concentration stated
Protocol: as §1, §3, §4

[5] = tested on: BMP-2; assay: Immunohistochemistry of BMP-2 expression in the titanium enclosure model; type: in vivo, rat; conditions: no concentration stated
Protocol: as §1, §3, §4

[6] = tested on: titanium implants placed in the rat femur; assay: Titanium implant model of bone regeneration (bone height and width around implant); type: in vivo; conditions: for bone growth (height and width) around implant: versus control vehicle
Protocol: In a second study, titanium implants were placed in the rat femurto mimic human dental implant placement, as described in Example 2. Bone healing and regeneration around the implants was assessed following treatment with implants loaded with Δ^12PGJ2.
Six male Wistar rats were anesthetized as described in Example 1 for the placement of 4 titanium implants in each animal. Implants were fabricated from surgical grade titanium 1.5 mm in diameter, 2.5 mm in length with machined threads, cleaned bysonication and autoclaved prior to use. Implant sites were prepared with cooling using a dental high speed hand piece. One test and one control implant site were prepared for placement of 5 μl of test or control solution, followed by implant placement. Control implants comprised vehicle only (10% carboxymethylcellulose in normal saline). For test sites, 10^−3M or 10^−5M Δ^12PGJ2 was applied to the site following placement of the implant. Animals were monitored for 3 or 8 weeks following implantation.
Femur bones were collected and fixed in 4% paraformaldehyde, 0.1 M phosphate buffer. Samples were cleared through sequential washings of graded alcohol followed by xylene. Bones were embedded in methacrylate and sectioned with a low speed diamond saw and stained with Toluidine Blue. Two different quantitative measurements were derived from each implant to measure the amount of bone regenerated around each implant. These measurements represent the bone height from the endosteal surface to the most apical bone contact area of the implant and the mean width of that same bone calculated using three measurement references, including the endosteal surface (ES), ES +130 microns, and ES +260 microns.

[7] = treated versus control injuries, 10^−3M or 10^−5M applied to site

SMILES: CCCCCC(O)CC=C1C(=O)C=CC1C/C=C\CCCC(=O)O (stereo not drawn) [Δ^12PGJ2, Δ^12-13,14-dihydro-9-deoxy-Δ^9-prostaglandin D2]
- bone volume following administration (FIG. 2) [1]: increase in bone volume
- percentage of new bone formation in cortical defect area (bone growth) ([1]; 30 ng dose in collagen sponge, 10 days): 53 % volume
- increase in total bone area following treatment ([1]; 3.0 μg and 30 ng doses versus control, 10 days): ~33%
- percentage of new bone formation in cortical defect area (bone growth) ([1]; 3.0 μg dose in collagen sponge, 10 days): 54 % volume
- percentage of new bone formation, dose dependence ([1]; doses 3 pg to 3.0 μg, 10 days): increased in a dose-dependent manner
- PDGF-B expression in the area of the defect ([2]; 10^−3M): significant increase
- PDGF-B expression in the area of the defect ([2]; 10^−5M): significant increase
- PDGF-B expression / induction (general statement) ([2]; no concentration stated): increase in PDGF-B expression; also recorded: potent and dose-dependent inducer
- BMP-6 expression / induction [3]: increase in BMP-6 expression; also recorded: potent and dose-dependent inducer
- PDGF-A induction [4]: potent and dose-dependent inducer
- BMP-2 induction [5]: potent and dose-dependent inducer
- bone growth (height and width) around implant ([6]; 3 weeks after administration): Significantly increased bone growth
- bone growth (height and width) around implant ([6]; 8 weeks after administration): Significantly increased bone growth
- bone height around implant [6, 7]: significantly increased
- bone width around implant [6, 7]: significantly increased
